Data taken from patent publication US20250145594A1, “MODULATORS OF THE INTEGRATED STRESS PATHWAY” (Calico Life Sciences LLC, priority 2020, published 2025).

Tested on: ATF4 luciferase reporter in HEK293T cells
Experiment: ATF4-Luc assay (in vitro model of VWMD)
Type: cell-based, human
Details: Homo sapiens, HEK-293T, 7 h, HEK293T cells carrying the ATF4 luciferase reporter, 1 μg/mL tunicamycin, One Glo luminescence
How it was run: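 Stable HEK293T line expressing firefly luciferase behind the human ATF4 5′-UTR, treated with 1 μg/mL tunicamycin plus compound for 7 hours. Luminescence read with One Glo; EC50 determined.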

| SMILES | EC50 |
| --- | --- |
| O=C(NC12CC(n3cc(C[C@H]4C[C@@H](OC(F)(F)F)C4)cn3)(C1)C2)[C@H]1C[C@@H](O)c2cc(Cl)ccc2O1 [Compound 531, (2R,4R)-6-chloro-4-hydroxy-N-[3-(4-{[(1s,3R)-3-(trifluoromethoxy)cyclobutyl]methyl}-1H-pyrazol-1-yl)bicyclo[1.1.1]pentan-1-yl]-3,4-dihydro-2H-1-benzopyran-2-carboxamide] | 10 to 50 nM |
| O=C(CO[C@H]1C[C@@H](OC(F)(F)F)C1)NC12CC(NC(=O)[C@H]3C[C@H](O)c4cc(Cl)c(Cl)cc4O3)(C1)C2 [Compound 495, (2R,4S)-6,7-dichloro-4-hydroxy-N-[3-(2-{[(1s,3S)-3-(trifluoromethoxy)cyclobutyl]oxy}acetamido)bicyclo[1.1.1]pentan-1-yl]-3,4-dihydro-2H-1-benzopyran-2-carboxamide] | < 10 nM |
| O=C(NC12CC(n3cnc(C(=O)N4CCC[C@@H](OC(F)(F)F)C4)c3)(C1)C2)[C@H]1C[C@@H](O)c2cc(Cl)ccc2O1 [Compound 392, (2R,4R)-6-chloro-4-hydroxy-N-(3-{4-[(3R)-3-(trifluoromethoxy)piperidine-1-carbonyl]-1H-imidazol-1-yl}bicyclo[1.1.1]pentan-1-yl)-3,4-dihydro-2H-1-benzopyran-2-carboxamide] | 250 to 500 nM |
| O=C(NC12CC(c3ccc(C(=O)N4CC(OC(F)(F)F)C4)nc3)(C1)C2)[C@H]1C[C@@H](O)c2cc(Cl)ccc2O1 [Compound 536, (2R,4R)-6-chloro-4-hydroxy-N-(3-{6-[3-(trifluoromethoxy)azetidine-1-carbonyl]pyridin-3-yl}bicyclo[1.1.1]pentan-1-yl)-3,4-dihydro-2H-1-benzopyran-2-carboxamide] | < 10 nM |
